Laboratory results taken from patent US9238796B2, “Cell growth-promoting peptide and use thereof” (TOAGOSEI CO., LTD., priority 2010, dated 2016).
No end group written: not given here.

Tested on: Rat bone marrow-derived stem cells (mesenchymal stem cells)
Test: Evaluation of cell growth-promoting activity, WST-8 colorimetric method (Example 5)
Type: cell-based
Details: day 0; WST-8 absorbance at 450 nm; peptide approximately 2 μM, bFGF 10 ng/mL
Protocol: (§1) Experimental sections were set up that used the cell growth-promoting peptides obtained in Example 4 (samples 22 to 42) as a cell growth promoter and that used a commercially available bFGF as a cell growth promoter as a comparative example. For the control, a peptide-free section (the bFGF was also not added) was set up.
(§2) The details of the evaluation testing are provided below. Each synthesized sample peptide was dissolved in PBS (phosphate-buffered physiological saline) to prepare a stock solution with a peptide concentration of 1 mM.
(§3) Rat bone marrow-derived stem cells (mesenchymal stem cells) were used as the test cells. Specifically, the test stem cells were cultured by passage on Dulbecco's MEM medium (DMEM medium: Gibco product) containing 10% fetal bovine serum (FBS: Gibco product), 2 mM of L-glutamine, 50 unit/mL of penicillin, and 50 μg/mL of streptomycin. From the second passage to the fourth passage (passages 2 to 4) were used in this evaluation testing.
(§4) Thus, the test stem cells were preliminarily recovered by treatment with a 0.05% trypsin-0.53 mM EDTA solution; a test stem cell solution, prepared with the DMEM medium containing 10 ng/mL of bFGF to provide 1×10^4 cells/mL, was seeded to each well of a 96-well plate to provide a cell count of 1×10^3 per well; and pre-cultivation was carried out overnight. The amount of medium was brought to 100 μL per well for this.
(§5) The medium in each well was then exchanged for fresh medium to which a stock solution of a peptide selected from sample 22 to 42 had been added, so as to give a concentration of the peptide in each well of approximately 2 μM. For comparison, in some wells the medium in the well was exchanged for fresh medium to which a commercially available bFGF (product of PeproTech) had been added to give a concentration of 10 ng/mL (the bFGF experimental section in Table 6).
(§6) After the addition of the sample peptide or bFGF as indicated above, the 96-well plate was placed in a CO2 incubator and cultivation at quiescence was carried out at 37° C. under 5% CO2. Medium exchange was performed every other day. The exchange medium was the same as that used at the start of cultivation (i.e., the same sample peptide or bFGF was also added to the exchange medium as in the sample peptide addition section or bFGF addition section).
During this cultivation test, a “water-soluble tetrazolium salt (WST-8)” was added as a chromogenic reagent to some wells at the start of cultivation (day 0) and at four days after the start of cultivation (day 4). After incubation for 2 hours after the addition, the cell culture fluid to which the chromogenic reagent had been added was recovered. The extent of cell growth was evaluated by a colorimetric method in which, based on reduction of the tetrazolium salt, the absorbance (OD450) at a wavelength of 450 nm was measured.

| Substance | OD450 at the start of cultivation |
| --- | --- |
| MLPGLALLLLAAWTGKKRTLRKNDRKKR (MLPGLALLLLAAWTGKKRTLRKNDRKKR-NH2) [compound 35] | 0.051 |
| MLPGLALLLLAGKKRTLRKNDRKKR (MLPGLALLLLAGKKRTLRKNDRKKR-NH2) [compound 38] | 0.051 |
| MLPGLALLLLGKKRTLRKNDRKKR (MLPGLALLLLGKKRTLRKNDRKKR-NH2) [sample 39] | 0.051 |
| PGLALLLLAAWTARAGKKRTLRKNDRKKR (PGLALLLLAAWTARAGKKRTLRKNDRKKR-NH2) [compound 23] | 0.051 |
| WTARAGKKRTLRKNDRKKR (WTARAGKKRTLRKNDRKKR-NH2) [compound 33] | 0.051 |
| basic fibroblast growth factor [bFGF, reference compound] | 0.051 |

Same assay, conditions: day 4; WST-8 absorbance at 450 nm; peptide approximately 2 μM, bFGF 10 ng/mL

| Substance | OD450 after 4 days |
| --- | --- |
| MLPGLALLLLAAWTGKKRTLRKNDRKKR (MLPGLALLLLAAWTGKKRTLRKNDRKKR-NH2) [compound 35] | 0.299 |
| MLPGLALLLLAGKKRTLRKNDRKKR (MLPGLALLLLAGKKRTLRKNDRKKR-NH2) [compound 38] | 0.491 |
| MLPGLALLLLGKKRTLRKNDRKKR (MLPGLALLLLGKKRTLRKNDRKKR-NH2) [sample 39] | 0.538 |
| PGLALLLLAAWTARAGKKRTLRKNDRKKR (PGLALLLLAAWTARAGKKRTLRKNDRKKR-NH2) [compound 23] | 0.391 |
| WTARAGKKRTLRKNDRKKR (WTARAGKKRTLRKNDRKKR-NH2) [compound 33] | 0.407 |
| basic fibroblast growth factor [bFGF, reference compound] | 0.499 |

Tested on: Rat bone marrow-derived stem cells (mesenchymal stem cells)
Test: Evaluation of cell growth-promoting activity, WST-8 colorimetric method (Example 2)
Type: cell-based
Details: day 0; WST-8 absorbance at 450 nm; peptide approximately 2 μM, bFGF 10 ng/mL
Protocol: as §1, with “1” for “4”, “1” for “22”, “21)” for “42)”
as §2, §3, §4
as §5, with “1” for “22”, “21” for “42”, “3).” for “6).”
as §6
During this cultivation test, a “water-soluble tetrazolium salt (WST-8)” was added as a chromogenic reagent to some wells at the start of cultivation (day 0), at two days after the start of cultivation (day 2), and at four days after the start of cultivation (day 4). After incubation for 2 hours after the addition, the cell culture fluid to which the chromogenic reagent had been added was recovered. The extent of cell growth was evaluated by a colorimetric method in which, based on reduction of the tetrazolium salt, the absorbance (OD450) at a wavelength of 450 nm was measured.

| Substance | OD450 at the start of cultivation |
| --- | --- |
| basic fibroblast growth factor [bFGF, reference compound] | 0.058 |

Same assay, conditions: day 2; WST-8 absorbance at 450 nm; peptide approximately 2 μM, bFGF 10 ng/mL

| Substance | OD450 after 2 days |
| --- | --- |
| basic fibroblast growth factor [bFGF, reference compound] | 0.196 |

Same assay, conditions: day 4; WST-8 absorbance at 450 nm; peptide approximately 2 μM, bFGF 10 ng/mL

| Substance | OD450 after 4 days |
| --- | --- |
| basic fibroblast growth factor [bFGF, reference compound] | 0.484 |
